Reference: patent US12612360B2 (Sanofi, priority 2020, dated 2026)

Molecular target: T1, ERα (Homo sapiens, UniProt P03372)
T1 construct: host or cells: MCF7
T1 sequence (P03372 1-595): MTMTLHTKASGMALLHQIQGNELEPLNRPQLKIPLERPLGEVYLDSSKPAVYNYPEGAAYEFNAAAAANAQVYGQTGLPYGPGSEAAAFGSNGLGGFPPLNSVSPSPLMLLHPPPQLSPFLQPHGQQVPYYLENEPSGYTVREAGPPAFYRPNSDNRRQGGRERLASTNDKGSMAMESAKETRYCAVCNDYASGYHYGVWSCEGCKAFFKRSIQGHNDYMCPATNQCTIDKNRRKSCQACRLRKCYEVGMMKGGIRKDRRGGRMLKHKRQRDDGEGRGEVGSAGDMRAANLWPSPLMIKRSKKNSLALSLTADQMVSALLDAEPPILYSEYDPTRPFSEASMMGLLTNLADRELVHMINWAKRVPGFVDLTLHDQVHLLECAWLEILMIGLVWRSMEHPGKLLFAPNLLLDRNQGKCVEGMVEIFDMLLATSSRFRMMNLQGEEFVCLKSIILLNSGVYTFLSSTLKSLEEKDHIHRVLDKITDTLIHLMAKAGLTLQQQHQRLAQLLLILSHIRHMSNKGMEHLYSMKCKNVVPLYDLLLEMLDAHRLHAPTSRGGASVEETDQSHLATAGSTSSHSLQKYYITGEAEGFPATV
Experiment: Estrogen receptor degradation activity: breast cancer cell ERα in cell western assay (MCF7 cells)
Assay type: cell-based
Conditions: for % Degradation At 0.3 μM: 4 hours, relative to fulvestrant 0.1 μM positive control; for DC50: 4 hours post compound addition, concentration which degrades 50% of the estrogen receptor, read-out: Degradation IC50
Experimental: Test: Estrogen Receptor Degradation Activity Said test involves measuring the in vitro degradation activity of the compounds of the Table 1a. The measurements of the degradation activities were made using a breast cancer cell ERα in cell western assay as described hereunder. MCF7 cells (ATCC) were seeded in 384 wells microplate (collagen coated) at a concentration of 10000 cells/30 μL per well in red phenol free MEM alpha medium (invitrogen) containing 5% charcoal dextran striped FBS. The following day, 9 points serial 1:5 dilution of each compound was added to the cells in 2.5 μL at final concentrations ranging from […] (in table 2), or 0.1 μM for fulvestrant (using as positive control). At 4 hours post compound addition the cells were fixed by adding 25 μL of formalin (final concentration 5% formalin containing 0.1% triton) for 10 minutes at room temperature and then washed twice with PBS. Then, 50 μL of LI-COR blocking buffer containing 0.1% Triton was added to plate for 30 minutes at room temperature. LI-COR blocking buffer was removed and cells were incubated overnight at cold room with 50 μL anti-ER rabbit monoclonal antibody (Thermo scientific MA1-39540) diluted at 1:1000 in LI-COR blocking buffer containing 0.1% tween-20. Wells which were treated with blocking buffer but no antibody were used as background control. Wells were washed twice with PBS (0.1% tween-20) and incubated at 37° C. for 60 minutes in LI-COR (0.1% tween-20) containing goat anti-rabbit antibody Alexa 488 (1:1000) and Syto-64 a DNA dye (2 μM final concentration). Cells were then washed 3 times in PBS and scanned in ACUMEN explorer (TTP-Labtech). Integrated intensities in the green fluorescence and red fluorescence were measured to determine the levels of ERα and DNA respectively. The degradation activity with respect to estrogen receptors in this test is given by the concentration which degrades 50% of the estrogen receptor (or IC50) in nM. […] DMSO−fulvestrant)).

Row | Compound | % Degradation At 0.3 μM | DC50
1 | O=C(O)c1ccc2c(c1)CCCC(c1ccc(F)c(C(F)(F)F)c1F)=C2c1ccc(C=C2CN(CCCF)C2)cc1 [Example 124, 8-(2,4-difluoro-3-(trifluoromethyl)phenyl)-9-(4-((1-(3-fluoropropyl)azetidin-3-ylidene)methyl)phenyl)-6,7-dihydro-5H-benzo[7]annulene-3-carboxylic acid] | 93% | 1.2 nM
2 | Cc1ccc(C2=C(c3ccc(C=C4CN(CCCF)C4)cc3)c3ccc(C(=O)O)cc3CCC2)c(C(F)(F)F)c1 [Example 70, 9-(4-((1-(3-fluoropropyl)azetidin-3-ylidene)methyl)phenyl)-8-(4-methyl-2-(trifluoromethyl)phenyl)-6,7-dihydro-5H-benzo[7]annulene-3-carboxylic acid] | 101% | 0.2 nM
3 | O=C(O)c1ccc2c(c1)CCCC(c1ccc(F)cc1C(F)(F)F)=C2c1ccc(C=C2CN(CCC(F)F)C2)cc1 [Example 25, 9-(4-((1-(3,3-difluoropropyl)azetidin-3-ylidene)methyl)phenyl)-8-(4-fluoro-2-(trifluoromethyl)phenyl)-6,7-dihydro-5H-benzo[7]annulene-3-carboxylic acid] | 92% | 0.5 nM
4 | Cc1cc(C2=C(c3ccc(F)cc3C)CCCc3cc(C(=O)O)ccc32)c(C)cc1C=C1CN(CCCF)C1 [Example 45, 8-(4-fluoro-2-methylphenyl)-9-(4-((1-(3-fluoropropyl)azetidin-3-ylidene)methyl)-2,5-dimethylphenyl)-6,7-dihydro-5H-benzo[7]annulene-3-carboxylic acid] | 89% | 0.7 nM
5 | O=C(O)c1ccc2c(c1)CCCC(c1c(F)cc(C(F)(F)F)cc1F)=C2c1ccc(C=C2CN(CCCF)C2)cc1 [Example 21, 8-(2,6-difluoro-4-(trifluoromethyl)phenyl)-9-(4-((1-(3-fluoropropyl)azetidin-3-ylidene)methyl)phenyl)-6,7-dihydro-5H-benzo[7]annulene-3-carboxylic acid] | 93% | 0.3 nM
6 | Cc1cc(F)ccc1C1=C(c2cc(C)c(C=C3CN(CCCF)C3)c(F)c2)c2ccc(C(=O)O)cc2CCC1 [Example 28, 8-(4-fluoro-2-methylphenyl)-9-(3-fluoro-4-((1-(3-fluoropropyl)azetidin-3-ylidene)methyl)-5-methylphenyl)-6,7-dihydro-5H-benzo[7]annulene-3-carboxylic acid] | 90% | 1 nM
7 | O=C(O)c1ccc2c(c1)CCCC(c1ccc(Cl)cc1C(F)(F)F)=C2c1ccc(C=C2CN(CCCF)C2)cc1 [Example 37, 8-(4-chloro-2-(trifluoromethyl)phenyl)-9-(4-((1-(3-fluoropropyl)azetidin-3-ylidene)methyl)phenyl)-6,7-dihydro-5H-benzo[7]annulene-3-carboxylic acid] | 87% | 0.4 nM
8 | Cc1ccc(C2=C(c3ccc(C=C4CN(CCCF)C4)cc3)c3ccc(C(=O)O)cc3CCC2)c(C)c1 [Example 77, 8-(2,4-dimethylphenyl)-9-(4-((1-(3-fluoropropyl)azetidin-3-ylidene)methyl)phenyl)-6,7-dihydro-5H-benzo[7]annulene-3-carboxylic acid] | 92% | 0.4 nM
9 | O=C(O)c1ccc2c(c1)CCCC(c1cc(F)cc(C(F)(F)F)c1Cl)=C2c1ccc(C=C2CN(CCCF)C2)cc1 [Example 123, 8-(2-chloro-5-fluoro-3-(trifluoromethyl)phenyl)-9-(4-((1-(3-fluoropropyl)azetidin-3-ylidene)methyl)phenyl)-6,7-dihydro-5H-benzo[7]annulene-3-carboxylic acid] | 94% | 0.7 nM
10 | O=C(O)c1ccc2c(c1)CCCC(c1ccc(F)cc1F)=C2c1ccc(C=C2CN(CCC(F)F)C2)cc1 [Example 20, 8-(2,4-difluorophenyl)-9-(4-((1-(3,3-difluoropropyl)azetidin-3-ylidene)methyl)phenyl)-6,7-dihydro-5H-benzo[7]annulene-3-carboxylic acid] | 92% | 0.3 nM
11 | Cc1cc(C=C2CN(CCCF)C2)cc(F)c1C1=C(c2ccc(Cl)cc2Cl)CCCc2cc(C(=O)O)ccc21.Cl [Example 66, 8-(2,4-dichlorophenyl)-9-(2-fluoro-4-((1-(3-fluoropropyl)azetidin-3-ylidene)methyl)-6-methylphenyl)-6,7-dihydro-5H-benzo[7]annulene-3-carboxylic acid hydrochloride] | 98% | 0.4 nM
12 | O=C(O)c1ccc2c(c1)CCCC(c1c(F)ccc3c1CCC3)=C2c1ccc(C=C2CN(CCCF)C2)cc1 [Example 6, 8-(5-fluoro-2,3-dihydro-1H-inden-4-yl)-9-(4-((1-(3-fluoropropyl)azetidin-3-ylidene)methyl)phenyl)-6,7-dihydro-5H-benzo[7]annulene-3-carboxylic acid] | 92% | 0.4 nM
13 | Cc1cc(C2CC2)ccc1C1=C(c2ccc(C=C3CN(CCCF)C3)cc2)c2ccc(C(=O)O)cc2CCC1 [Example 39, 8-(4-cyclopropyl-2-methylphenyl)-9-(4-((1-(3-fluoropropyl)azetidin-3-ylidene)methyl)phenyl)-6,7-dihydro-5H-benzo[7]annulene-3-carboxylic acid] | 87% | 0.2 nM

More lines, now with the values ahead:

Row | % Degradation At 0.3 μM | DC50 | Compound
14 | 85% | 4.3 nM | Cc1cc(C2=C(c3ccc(C=C4CN(CCCF)C4)cc3)c3ccc(C(=O)O)cc3CCC2)cc(C(F)(F)F)c1 [Example 145, 9-(4-((1-(3-fluoropropyl)azetidin-3-ylidene)methyl)phenyl)-8-(3-methyl-5-(trifluoromethyl)phenyl)-6,7-dihydro-5H-benzo[7]annulene-3-carboxylic acid]
15 | 97% | 20.4 nM | O=C(O)c1ccc2c(c1)CCCC(c1ccc(Cl)cc1Cl)=C2c1ccc(C=C2CN(CCCF)C2)cn1 [Example 159, 8-(2,4-Dichlorophenyl)-9-(5-((1-(3-fluoropropyl)azetidin-3-ylidene)methyl)pyridin-2-yl)-6,7-dihydro-5H-benzo[7]annulene-3-carboxylic acid]
16 | 92% | 1 nM | O=C(O)c1ccc2c(c1)CCCC(c1cccc3c1CCCC3)=C2c1ccc(C=C2CN(CCCF)C2)cc1 [Example 177, 9-(4-((1-(3-fluoropropyl)azetidin-3-ylidene)methyl)phenyl)-8-(5,6,7,8-tetrahydronaphthalen-1-yl)-6,7-dihydro-5H-benzo[7]annulene-3-carboxylic acid]
17 | 88% | 1.4 nM | O=C(O)c1ccc2c(c1)CCCC(c1ccc(C(F)(F)F)c(C(F)(F)F)c1)=C2c1ccc(C=C2CN(CCCF)C2)cc1 [Example 146, 8-(3,4-bis(trifluoromethyl)phenyl)-9-(4-((1-(3-fluoropropyl)azetidin-3-ylidene)methyl)phenyl)-6,7-dihydro-5H-benzo[7]annulene-3-carboxylic acid]
18 | 97% | 3.1 nM | Cc1cc(F)ccc1C1=C(c2ccc(C=C3CN(CCCF)C3)cc2C#N)c2ccc(C(=O)O)cc2CCC1 [Example 139, 9-(2-cyano-4-((1-(3-fluoropropyl)azetidin-3-ylidene)methyl)phenyl)-8-(4-fluoro-2-methylphenyl)-6,7-dihydro-5H-benzo[7]annulene-3-carboxylic acid]
19 | 89% | 0.6 nM | COc1cc(C2=C(c3ccc(C=C4CN(CCCF)C4)cc3)c3ccc(C(=O)O)cc3CCC2)c(F)cn1 [Example 156, 8-(5-fluoro-2-methoxypyridin-4-yl)-9-(4-((1-(3-fluoropropyl)azetidin-3-ylidene)methyl)phenyl)-6,7-dihydro-5H-benzo[7]annulene-3-carboxylic acid]
